# According to ChEMBL document CHEMBL1152560, “Substituted 2-arylbenzothiazoles as kinase inhibitors: hit-to-lead optimization” (Bioorg Med Chem, 2009):
# Tests used:
# [1] = Residual activity of PKA at 1 uM by microplate scintillation counting
# [2] = molecular target: Protein kinase C eta type (Homo sapiens) (UniProt P24723); test: Residual activity of PKCeta at 10 uM by microplate scintillation counting
# [3] = molecular target: Tyrosine-protein kinase Fgr (Homo sapiens) (UniProt P09769); test: Residual activity of FGR at 10 uM by microplate scintillation counting
# [4] = molecular target: Cyclin-dependent kinase 4/cyclin D1 (Homo sapiens) (UniProt P11802+P24385); test: Residual activity of CDK4/Cyclin D1 at 10 uM by microplate scintillation counting; format: protein-complex assay
# [5] = molecular target: Insulin-like growth factor 1 receptor (Homo sapiens) (UniProt P08069); test: Residual activity of IGF1R at 10 uM by microplate scintillation counting
# [6] = molecular target: Vascular endothelial growth factor receptor 2 (Homo sapiens, UniProt P35968); test: Inhibition of VEGFR2 by microplate scintillation counting
# Sequence of Vascular endothelial growth factor receptor 2 (P35968 whole entry): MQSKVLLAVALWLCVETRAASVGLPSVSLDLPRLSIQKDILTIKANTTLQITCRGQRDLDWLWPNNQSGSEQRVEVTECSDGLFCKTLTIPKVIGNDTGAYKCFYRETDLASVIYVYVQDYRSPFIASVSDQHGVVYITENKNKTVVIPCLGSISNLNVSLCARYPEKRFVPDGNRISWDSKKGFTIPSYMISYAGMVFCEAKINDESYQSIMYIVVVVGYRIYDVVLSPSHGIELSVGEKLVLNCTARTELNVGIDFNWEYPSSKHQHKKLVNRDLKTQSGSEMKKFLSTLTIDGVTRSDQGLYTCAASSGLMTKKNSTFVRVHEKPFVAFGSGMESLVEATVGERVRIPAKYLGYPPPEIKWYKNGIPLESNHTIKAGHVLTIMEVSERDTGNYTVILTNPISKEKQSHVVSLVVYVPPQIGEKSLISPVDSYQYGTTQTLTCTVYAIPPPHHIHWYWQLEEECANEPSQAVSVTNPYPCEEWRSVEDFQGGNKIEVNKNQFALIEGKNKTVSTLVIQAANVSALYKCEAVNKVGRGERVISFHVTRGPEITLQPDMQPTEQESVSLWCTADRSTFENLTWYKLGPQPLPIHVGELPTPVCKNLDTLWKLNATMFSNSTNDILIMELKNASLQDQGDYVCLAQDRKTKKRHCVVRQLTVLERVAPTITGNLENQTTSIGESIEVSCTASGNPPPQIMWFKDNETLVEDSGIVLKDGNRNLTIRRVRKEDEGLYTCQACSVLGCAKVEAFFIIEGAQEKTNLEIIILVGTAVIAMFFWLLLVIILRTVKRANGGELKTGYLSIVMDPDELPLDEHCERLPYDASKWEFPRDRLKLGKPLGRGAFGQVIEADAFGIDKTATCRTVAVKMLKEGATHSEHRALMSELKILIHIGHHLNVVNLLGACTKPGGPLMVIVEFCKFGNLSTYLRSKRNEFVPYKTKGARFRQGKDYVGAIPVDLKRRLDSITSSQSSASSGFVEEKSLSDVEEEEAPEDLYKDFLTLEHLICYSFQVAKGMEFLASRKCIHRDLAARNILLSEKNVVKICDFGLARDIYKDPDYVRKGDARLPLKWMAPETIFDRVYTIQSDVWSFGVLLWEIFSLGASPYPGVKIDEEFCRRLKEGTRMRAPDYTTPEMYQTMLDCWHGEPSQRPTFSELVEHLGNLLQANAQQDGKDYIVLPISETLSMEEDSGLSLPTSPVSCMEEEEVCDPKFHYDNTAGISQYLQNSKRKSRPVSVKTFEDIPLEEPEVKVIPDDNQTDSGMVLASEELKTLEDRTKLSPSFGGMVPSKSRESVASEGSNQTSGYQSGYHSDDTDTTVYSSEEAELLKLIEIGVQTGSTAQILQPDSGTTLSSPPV
# [7] = molecular target: Receptor tyrosine-protein kinase erbB-4 (Homo sapiens) (UniProt Q15303); test: Residual activity of ERBB4 at 1 uM by microplate scintillation counting
# [8] = molecular target: T1, Activin receptor type-1 (Homo sapiens) (UniProt Q04771); test: Residual activity of ACV-R1 at 10 uM by microplate scintillation counting
# T1 sequence (whole entry): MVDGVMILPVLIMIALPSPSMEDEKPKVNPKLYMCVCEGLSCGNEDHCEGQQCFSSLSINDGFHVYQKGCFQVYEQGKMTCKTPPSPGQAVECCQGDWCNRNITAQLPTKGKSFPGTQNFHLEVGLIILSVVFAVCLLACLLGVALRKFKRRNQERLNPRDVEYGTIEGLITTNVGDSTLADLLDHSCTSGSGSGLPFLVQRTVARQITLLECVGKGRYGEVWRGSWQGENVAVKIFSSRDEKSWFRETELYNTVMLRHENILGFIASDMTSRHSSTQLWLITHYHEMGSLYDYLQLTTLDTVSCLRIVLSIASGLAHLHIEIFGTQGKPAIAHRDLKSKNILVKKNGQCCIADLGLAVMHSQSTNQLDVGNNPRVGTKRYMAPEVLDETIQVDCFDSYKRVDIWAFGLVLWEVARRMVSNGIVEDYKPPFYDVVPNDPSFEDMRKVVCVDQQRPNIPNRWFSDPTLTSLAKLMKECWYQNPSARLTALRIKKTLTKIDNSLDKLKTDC
# [9] = molecular target: T2, cAMP-dependent protein kinase catalytic subunit PRKX (Homo sapiens) (UniProt P51817); test: Residual activity of PRKX at 0.1 uM by microplate scintillation counting
# T2 sequence (whole entry): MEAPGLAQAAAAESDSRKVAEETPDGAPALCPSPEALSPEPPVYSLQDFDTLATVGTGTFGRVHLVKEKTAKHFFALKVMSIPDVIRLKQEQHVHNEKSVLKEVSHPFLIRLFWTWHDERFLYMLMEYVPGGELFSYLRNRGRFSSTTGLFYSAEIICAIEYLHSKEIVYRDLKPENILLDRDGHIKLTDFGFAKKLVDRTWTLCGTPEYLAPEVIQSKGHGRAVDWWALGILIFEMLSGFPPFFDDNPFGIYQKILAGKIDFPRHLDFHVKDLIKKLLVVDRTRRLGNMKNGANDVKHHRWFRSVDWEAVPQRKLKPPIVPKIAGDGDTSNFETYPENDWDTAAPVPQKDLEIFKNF
# [10] = Residual activity of S6K at 0.1 uM by microplate scintillation counting
# [11] = molecular target: CDK3/cyclin E (Homo sapiens) (UniProt P24864+O96020+Q00526); test: Residual activity of CDK3/Cyclin E at 1 uM by microplate scintillation counting; format: protein-complex assay
# [12] = molecular target: T3, Eukaryotic translation initiation factor 2-alpha kinase 3 (Homo sapiens) (UniProt Q9NZJ5); test: Residual activity of EIF2AK3 at 10 uM by microplate scintillation counting
# T3 sequence (whole entry): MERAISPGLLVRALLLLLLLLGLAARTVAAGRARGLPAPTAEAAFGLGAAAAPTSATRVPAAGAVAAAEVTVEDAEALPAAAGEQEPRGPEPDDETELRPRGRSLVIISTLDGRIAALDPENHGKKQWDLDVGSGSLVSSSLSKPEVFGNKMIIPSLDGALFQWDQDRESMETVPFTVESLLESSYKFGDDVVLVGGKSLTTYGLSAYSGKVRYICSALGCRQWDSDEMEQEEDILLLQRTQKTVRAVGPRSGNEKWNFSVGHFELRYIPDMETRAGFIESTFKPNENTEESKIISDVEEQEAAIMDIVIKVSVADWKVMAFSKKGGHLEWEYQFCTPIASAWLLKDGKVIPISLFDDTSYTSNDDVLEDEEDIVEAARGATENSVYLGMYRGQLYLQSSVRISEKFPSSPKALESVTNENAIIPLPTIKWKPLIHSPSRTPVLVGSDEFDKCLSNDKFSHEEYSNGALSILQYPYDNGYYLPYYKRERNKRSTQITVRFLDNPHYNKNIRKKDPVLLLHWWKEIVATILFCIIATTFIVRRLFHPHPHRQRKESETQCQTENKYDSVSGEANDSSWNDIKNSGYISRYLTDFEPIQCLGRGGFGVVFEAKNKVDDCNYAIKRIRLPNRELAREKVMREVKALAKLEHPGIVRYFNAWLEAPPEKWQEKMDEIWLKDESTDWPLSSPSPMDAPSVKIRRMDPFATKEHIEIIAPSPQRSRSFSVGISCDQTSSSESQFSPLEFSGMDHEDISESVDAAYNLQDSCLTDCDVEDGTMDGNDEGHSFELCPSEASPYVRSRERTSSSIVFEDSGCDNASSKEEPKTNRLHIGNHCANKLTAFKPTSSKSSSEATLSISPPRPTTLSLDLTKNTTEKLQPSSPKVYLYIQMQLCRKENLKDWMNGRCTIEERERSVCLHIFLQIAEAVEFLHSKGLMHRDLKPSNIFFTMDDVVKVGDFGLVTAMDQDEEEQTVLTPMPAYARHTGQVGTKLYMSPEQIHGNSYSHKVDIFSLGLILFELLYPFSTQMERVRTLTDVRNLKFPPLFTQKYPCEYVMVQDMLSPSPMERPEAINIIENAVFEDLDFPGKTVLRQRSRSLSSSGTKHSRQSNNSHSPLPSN
# [13] = molecular target: Serine/threonine-protein kinase PLK2 (Homo sapiens) (UniProt Q9NYY3); test: Residual activity of SNK at 0.1 uM by microplate scintillation counting
# [14] = molecular target: Epidermal growth factor receptor (Homo sapiens, UniProt P00533); test: Residual activity of wild type EGF-R at 0.1 uM by microplate scintillation counting
# Sequence of Epidermal growth factor receptor (P00533 whole entry): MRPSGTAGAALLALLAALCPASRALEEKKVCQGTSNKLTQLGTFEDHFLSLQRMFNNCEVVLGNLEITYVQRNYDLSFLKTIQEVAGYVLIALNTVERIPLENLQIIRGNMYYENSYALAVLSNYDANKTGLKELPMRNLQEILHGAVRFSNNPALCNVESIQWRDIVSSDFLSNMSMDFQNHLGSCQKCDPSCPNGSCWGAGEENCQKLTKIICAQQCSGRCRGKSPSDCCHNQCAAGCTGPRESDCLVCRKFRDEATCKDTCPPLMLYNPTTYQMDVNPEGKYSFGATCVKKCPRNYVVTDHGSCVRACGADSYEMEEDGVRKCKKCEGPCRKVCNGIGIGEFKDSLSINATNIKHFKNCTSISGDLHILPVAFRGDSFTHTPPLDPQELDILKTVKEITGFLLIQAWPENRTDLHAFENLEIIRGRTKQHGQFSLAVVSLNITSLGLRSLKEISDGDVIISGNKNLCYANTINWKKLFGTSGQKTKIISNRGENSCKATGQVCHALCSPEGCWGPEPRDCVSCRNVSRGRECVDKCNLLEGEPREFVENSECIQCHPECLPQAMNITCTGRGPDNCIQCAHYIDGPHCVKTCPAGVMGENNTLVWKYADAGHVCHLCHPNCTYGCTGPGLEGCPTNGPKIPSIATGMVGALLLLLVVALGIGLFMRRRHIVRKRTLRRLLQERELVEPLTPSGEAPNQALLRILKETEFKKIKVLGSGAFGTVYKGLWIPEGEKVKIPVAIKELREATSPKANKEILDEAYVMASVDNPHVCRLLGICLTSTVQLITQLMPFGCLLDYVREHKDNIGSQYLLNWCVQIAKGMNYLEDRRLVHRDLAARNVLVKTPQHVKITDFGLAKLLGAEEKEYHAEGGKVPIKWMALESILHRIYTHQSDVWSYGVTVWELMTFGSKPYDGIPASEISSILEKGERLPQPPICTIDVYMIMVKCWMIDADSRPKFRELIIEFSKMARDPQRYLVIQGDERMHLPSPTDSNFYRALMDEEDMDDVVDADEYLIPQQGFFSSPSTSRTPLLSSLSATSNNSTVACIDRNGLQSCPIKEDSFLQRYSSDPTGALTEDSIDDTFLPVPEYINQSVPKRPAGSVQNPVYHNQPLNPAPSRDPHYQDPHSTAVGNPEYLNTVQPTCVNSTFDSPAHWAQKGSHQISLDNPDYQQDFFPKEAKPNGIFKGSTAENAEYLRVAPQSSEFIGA
# [15] = molecular target: ALK tyrosine kinase receptor (Homo sapiens) (UniProt Q9UM73); test: Residual activity of ALK at 0.1 uM by microplate scintillation counting
# Sequence of ALK tyrosine kinase receptor (Homo sapiens) (Q9UM73 19-1620 limits assumed): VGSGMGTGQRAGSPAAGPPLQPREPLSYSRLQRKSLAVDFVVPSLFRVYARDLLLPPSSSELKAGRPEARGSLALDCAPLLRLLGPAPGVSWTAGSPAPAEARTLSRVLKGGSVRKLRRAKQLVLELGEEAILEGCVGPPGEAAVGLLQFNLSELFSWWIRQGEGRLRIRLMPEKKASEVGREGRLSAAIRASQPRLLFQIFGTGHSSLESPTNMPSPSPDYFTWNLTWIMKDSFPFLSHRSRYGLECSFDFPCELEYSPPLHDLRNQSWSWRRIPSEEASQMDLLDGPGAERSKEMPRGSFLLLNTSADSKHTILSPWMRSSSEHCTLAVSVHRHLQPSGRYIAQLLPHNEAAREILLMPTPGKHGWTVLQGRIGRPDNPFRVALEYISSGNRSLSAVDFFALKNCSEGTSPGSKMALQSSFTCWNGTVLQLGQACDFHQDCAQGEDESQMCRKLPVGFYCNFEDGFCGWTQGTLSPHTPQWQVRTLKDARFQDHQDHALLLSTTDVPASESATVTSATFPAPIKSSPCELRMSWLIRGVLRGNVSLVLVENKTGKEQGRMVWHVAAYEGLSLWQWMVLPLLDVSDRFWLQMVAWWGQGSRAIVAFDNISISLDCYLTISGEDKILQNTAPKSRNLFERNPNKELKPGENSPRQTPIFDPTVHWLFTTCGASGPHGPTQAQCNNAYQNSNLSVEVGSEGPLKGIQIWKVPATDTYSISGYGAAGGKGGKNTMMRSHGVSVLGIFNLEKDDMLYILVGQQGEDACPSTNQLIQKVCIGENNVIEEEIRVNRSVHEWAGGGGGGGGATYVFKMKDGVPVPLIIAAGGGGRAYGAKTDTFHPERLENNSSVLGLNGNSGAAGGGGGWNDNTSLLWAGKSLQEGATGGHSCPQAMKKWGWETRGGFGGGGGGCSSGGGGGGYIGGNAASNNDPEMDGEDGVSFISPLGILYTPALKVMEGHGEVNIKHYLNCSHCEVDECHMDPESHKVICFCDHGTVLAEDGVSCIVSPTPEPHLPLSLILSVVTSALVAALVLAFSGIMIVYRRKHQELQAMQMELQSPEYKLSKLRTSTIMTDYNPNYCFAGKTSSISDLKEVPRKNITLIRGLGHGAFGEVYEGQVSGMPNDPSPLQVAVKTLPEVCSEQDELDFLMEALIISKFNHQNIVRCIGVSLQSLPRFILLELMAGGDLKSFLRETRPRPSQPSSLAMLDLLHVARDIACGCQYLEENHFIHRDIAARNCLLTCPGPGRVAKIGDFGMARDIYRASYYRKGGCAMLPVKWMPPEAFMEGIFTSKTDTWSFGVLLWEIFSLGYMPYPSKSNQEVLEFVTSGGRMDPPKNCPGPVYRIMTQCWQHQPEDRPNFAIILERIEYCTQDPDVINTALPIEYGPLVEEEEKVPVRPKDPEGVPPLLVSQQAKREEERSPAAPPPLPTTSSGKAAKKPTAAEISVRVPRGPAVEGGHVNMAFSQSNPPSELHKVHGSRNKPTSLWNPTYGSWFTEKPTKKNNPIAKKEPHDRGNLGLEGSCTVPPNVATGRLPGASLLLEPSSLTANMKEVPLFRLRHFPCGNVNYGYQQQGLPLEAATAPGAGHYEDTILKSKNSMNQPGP
# [16] = molecular target: Ephrin type-A receptor 4 (Homo sapiens) (UniProt P54764); test: Residual activity of EPHA4 at 10 uM by microplate scintillation counting
# [17] = molecular target: Ribosomal protein S6 kinase alpha-5 (Homo sapiens) (UniProt O75582); test: Residual activity of RPS6KA5 at 10 uM by microplate scintillation counting
# Sequence of Ribosomal protein S6 kinase alpha-5 (Homo sapiens) (O75582 whole entry, looked up): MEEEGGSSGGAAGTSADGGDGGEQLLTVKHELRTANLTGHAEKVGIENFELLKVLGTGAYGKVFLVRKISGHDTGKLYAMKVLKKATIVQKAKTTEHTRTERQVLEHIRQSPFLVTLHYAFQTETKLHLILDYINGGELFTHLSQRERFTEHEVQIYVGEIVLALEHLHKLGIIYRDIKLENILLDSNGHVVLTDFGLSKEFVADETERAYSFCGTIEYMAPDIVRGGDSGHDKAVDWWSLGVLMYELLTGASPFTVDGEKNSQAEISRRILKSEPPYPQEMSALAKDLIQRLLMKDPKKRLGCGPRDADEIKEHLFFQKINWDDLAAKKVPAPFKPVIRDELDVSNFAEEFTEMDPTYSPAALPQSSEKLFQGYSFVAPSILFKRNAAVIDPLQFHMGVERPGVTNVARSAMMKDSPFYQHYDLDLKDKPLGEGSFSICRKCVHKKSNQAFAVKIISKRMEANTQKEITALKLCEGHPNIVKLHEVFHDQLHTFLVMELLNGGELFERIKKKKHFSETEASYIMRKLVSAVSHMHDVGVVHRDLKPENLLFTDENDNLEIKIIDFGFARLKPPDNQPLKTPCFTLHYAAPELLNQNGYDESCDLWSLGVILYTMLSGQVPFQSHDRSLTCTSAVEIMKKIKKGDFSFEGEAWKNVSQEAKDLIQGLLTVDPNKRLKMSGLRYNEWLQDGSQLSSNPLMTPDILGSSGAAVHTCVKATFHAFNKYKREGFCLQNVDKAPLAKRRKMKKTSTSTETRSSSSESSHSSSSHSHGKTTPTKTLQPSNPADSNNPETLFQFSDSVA
compound,measurement,setting,value
COc1cc2c(Oc3ccc(-c4nc5ccccc5s4)cc3F)ncnc2cc1OCCCN1CCN(C)CC1,residual activity,[1],103%
same,residual activity,[2],55%
same,residual activity,[3],24%
same,residual activity,[4],99%
same,residual activity,[5],46%
same,IC50,[6],0.42 µM
same,residual activity,[7],103%
same,residual activity,[8],96%
same,residual activity,[9],93%
same,residual activity,[10],87%
same,residual activity,[11],79%
same,residual activity,[12],155%
same,residual activity,[13],89%
same,residual activity,[14],100%
same,residual activity,[15],114%
same,residual activity,[16],47%
same,residual activity,[17],151%
COc1cc2c(Oc3ccc(-c4nc5ccccc5s4)cc3)ncnc2cc1OCCCN1CCCC1,residual activity,[1],96%
same,residual activity,[2],81%
same,residual activity,[3],90%
same,residual activity,[4],101%
same,residual activity,[5],98%
same,IC50,[6],0.35 µM
same,residual activity,[7],109%
same,residual activity,[8],81%
same,residual activity,[9],86%
same,residual activity,[10],90%
same,residual activity,[11],89%
same,residual activity,[12],239%
same,residual activity,[13],108%
same,residual activity,[14],95%
same,residual activity,[15],102%
same,residual activity,[16],94%
same,residual activity,[17],140%
COc1cc2c(Oc3ccc(-c4nc5ccccc5s4)cc3)ncnc2cc1OCCCN1CCN(C)CC1,residual activity,[1],106%
same,residual activity,[2],71%
same,residual activity,[3],82%
same,residual activity,[4],97%
same,residual activity,[5],100%
same,IC50,[6],0.147 µM
same,residual activity,[7],99%
same,residual activity,[8],87%
same,residual activity,[9],90%
same,residual activity,[10],85%
same,residual activity,[11],85%
same,residual activity,[12],256%
same,residual activity,[13],89%
same,residual activity,[14],94%
same,residual activity,[15],106%
same,residual activity,[16],112%
same,residual activity,[17],146%
